The values below come from patent US8470552B2, “Strategy to reduce lactic acid production and control PH in animal cell culture” (Keck Graduate Institute, priority 2009, dated 2013).

The subject of experiment [1] is DG44 CHO (Native Control cells). As to the kind of experiment: Native control cells grown in various levels of Na-lactate and NaCl (shaker flasks). The class given is cell-based, Chinese Hamster. The procedure: Unless otherwise noted, the experiments described herein were conducted with a dihydrofolate reductase deficient (DHFR^−) Chinese Hamster Ovary cell line, DG44 CHO (Invitrogen, Carlsbad, Calif.). Prior to experimentation, the cells were transfected with a pOPTI-Vec TOPO plasmid vector containing the gene for a recombinant monoclonal ScFv-Fc1 protein fragment. Transfected cells were grown in selective OptiCHO medium (Invitrogen, Carlsbad, Calif.) and the recombinant gene copy number was further amplified by supplementing the medium with 250 nM methotrexate. The amount of recombinant antibody fragment expressed was less than 10 mg/L and not subsequently measured. This cell line was used to test the feasibility of the novel approach in terms of cell growth, death, and metabolism. Cells were frozen down and hereafter referred to as “Native Control” cells. All subsequent experiments were performed without methotrexate.
Cell concentration and viability was measured by the trypan blue exclusion method using a ViCell analyzer (Beckman Coulter, Fullerton, Calif.). Off-line measurements were taken with a Bioprofile 400 (Nova Biomedical, Waltham, Mass.) for glucose, glutamine, lactate, carbon dioxide, oxygen, ammonium concentration and pH levels. Osmolality was measured by freezing point depression on a Model 3250 Osmometer (Advanced Instruments, Norwood, Mass.)
In the first set of experiments, illustrated in FIGS. 1-6, cultures were grown at 30 ml working volume in 125 ml shaker flasks (Corning, Lowell, Mass.) placed in an incubator at 37° C., 135 rpm, and 8% CO2. Continuous passages were performed every 3 to 4 days in duplicate shaker flasks inoculated at a seeding density of 1.0×10^6 cell/ml. After the cells were adapted to the high lactate concentration, longer-duration batch cultures were performed in triplicate shaker flasks for 12 days starting at a seeding density of 0.3×10^6 cells/ml. A sodium (D/L)-lactate stock solution (Sigma, Lowell, Mass.) was used for lactate supplementation. All reported lactate values are for the physiologically relevant L-Lactate isomer.
Specific rates were determined on a time interval bases by measuring daily viable and total cell density (VCD or TCD) and metabolite concentrations. Specific net growth rate (μN), was calculated as change in VCD over a time interval t1 to t2 using Equation 1: […]
Metabolic flux was calculated as specific nutrient consumption rate or specific metabolite production rate (qp) using Equations 5 and 6, where P is nutrient such as glucose or glutamine or metabolite such as lactic acid or ammonium) concentration:
Native control cells were grown in various levels of Na-lactate and NaCl to evaluate the impact each component had on growth and viability. Media compositions are discussed in Table 1.

Experiment [2] concerns Lactate Adapted cells (DG44 CHO). As to the kind of experiment: Lactate Adapted cells continuously passaged in medium containing 0 to 40 mM lactate. The class given is cell-based, Chinese Hamster. The procedure:
Unless otherwise noted, the experiments described herein were conducted with a dihydrofolate reductase deficient (DHFR^−) Chinese Hamster Ovary cell line, DG44 CHO (Invitrogen, Carlsbad, Calif.). Prior to experimentation, the cells were transfected with a pOPTI-Vec TOPO plasmid vector containing the gene for a recombinant monoclonal ScFv-Fc1 protein fragment. Transfected cells were grown in selective OptiCHO medium (Invitrogen, Carlsbad, Calif.) and the recombinant gene copy number was further amplified by supplementing the medium with 250 nM methotrexate. The amount of recombinant antibody fragment expressed was less than 10 mg/L and not subsequently measured. This cell line was used to test the feasibility of the novel approach in terms of cell growth, death, and metabolism. Cells were frozen down and hereafter referred to as “Native Control” cells. […]
Cell concentration and viability was measured by the trypan blue exclusion method using a ViCell analyzer (Beckman Coulter, Fullerton, Calif.). […] Osmolality was measured by freezing point depression on a Model 3250 Osmometer (Advanced Instruments, Norwood, Mass.) […]
Metabolic flux was calculated as specific nutrient consumption rate or specific metabolite production rate (qp) using Equations 5 and 6, where P is nutrient such as glucose or glutamine or metabolite such as lactic acid or ammonium) concentration: […]

As to `[Cl-].[Na+]` [NaCl, sodium chloride, reference compound], the “specific lactic acid production” value in experiment [1] (NaCl supplementation (FIG. 1C)) is on record as “No such effect”.
As for `CC(O)C(=O)[O-].[Na+]` (stereo not shown) [Na-lactate, sodium lactate], the “specific lactic acid production” value in experiment [1] (27 mM lactate (FIG. 1C)) was “dramatic drop”; in experiment [1] (40 mM lactate (FIG. 1C)), “clear shift from production to consumption”. The “specific total growth and death rate” value in experiment [1] (non-adapted cells, Na-lactate compared with NaCl (FIG. 1B)) is “impacted specific total growth and death rate the most”. Besides, the “viable cell density (VCD)” value in experiment [1] (non-adapted cells, increasing lactate levels (FIG. 1A)) is listed as “clear reduction”. Further, the lactic acid production result in experiment [2] (cultures inoculated between 35 to 40 mM lactate (FIG. 3)) is reported as “substantially reduced”. In addition, the “initial lactate concentration at zero net flux of lactic acid production” value in experiment [2] (predicted from FIG. 3) is listed as “above 40 mM”.
